The record followed here is ChEMBL document CHEMBL4028825, “Pharmacological evaluation of a novel series of urea, thiourea and guanidine derivatives as P2X7 receptor antagonists” (Bioorg Med Chem Lett, 2017).

This experiment concerns the target T1, P2X purinoceptor 7 (Homo sapiens, UniProt Q99572).
T1 sequence (Q99572 whole entry): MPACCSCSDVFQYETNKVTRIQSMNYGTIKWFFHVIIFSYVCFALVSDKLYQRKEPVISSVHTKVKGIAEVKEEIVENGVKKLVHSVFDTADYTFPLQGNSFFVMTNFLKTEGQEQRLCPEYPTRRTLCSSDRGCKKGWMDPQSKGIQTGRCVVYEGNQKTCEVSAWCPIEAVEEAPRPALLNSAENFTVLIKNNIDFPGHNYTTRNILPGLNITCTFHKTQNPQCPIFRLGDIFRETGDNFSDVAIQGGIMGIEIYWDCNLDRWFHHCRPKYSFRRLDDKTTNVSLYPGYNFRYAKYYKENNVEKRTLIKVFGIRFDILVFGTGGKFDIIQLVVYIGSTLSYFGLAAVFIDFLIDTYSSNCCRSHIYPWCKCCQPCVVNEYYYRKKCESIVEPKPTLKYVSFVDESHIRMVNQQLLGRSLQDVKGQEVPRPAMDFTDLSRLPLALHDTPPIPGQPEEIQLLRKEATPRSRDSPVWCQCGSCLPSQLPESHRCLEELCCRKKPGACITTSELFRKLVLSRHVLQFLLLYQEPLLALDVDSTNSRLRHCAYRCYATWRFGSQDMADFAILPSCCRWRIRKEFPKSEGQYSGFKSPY
Description: Antagonist activity at P2X7 receptor in human THP1 cells assessed as inhibition of BzATP-induced YO-PRO-1 Iodide uptake measured every 30 secs for 1 hr by fluorescence assay. In kind it is cell-based.

Usually IC50 stands for the concentration needed to halve the response being measured. `N=C(NCc1ccccc1)NCC12CC3CC(CC(C3)C1)C2`: the half-inhibitory concentration (IC50) (read-out: IC50) is > 10 µM.

Turning to `O=C(NCCc1ccccc1)NCC12CC3CC(CC(C3)C1)C2`, for the setting “read-out: IC50”, the IC50 turned out to be 6.41 µM.

Regarding `O=C(NCc1ccncc1)NCC12CC3CC(CC(C3)C1)C2`, the half-inhibitory concentration (IC50) (read-out: IC50) is 6.75 µM.

Take `N=C(NCC12CC3CC(CC(C3)C1)C2)Nc1ccccc1`: the IC50 entry is on record as “Nd(Insoluble)”.

For the compound `O=C(NCc1ccccc1)NCC12CC3CC(CC(C3)C1)C2`, the IC50 (read-out: IC50) came out at 4.54 µM.

`O=C(NCC12CC3CC(CC(C3)C1)C2)Nc1ccccc1`: for the setting “read-out: IC50”, the IC50 was found to be 4.96 µM.

On to `S=C(NCC12CC3CC(CC(C3)C1)C2)Nc1ccccc1`, for which the IC50 (read-out: IC50) amounted to 2.42 µM.

For the compound `O=C(NCc1cccnc1)NCC12CC3CC(CC(C3)C1)C2`, the IC50 (read-out: IC50) was found to be 3.38 µM.

With `O=C(NCc1ccccn1)NCC12CC3CC(CC(C3)C1)C2`, the IC50 (read-out: IC50) turned out to be 5.95 µM.

In the case of `S=C(NCc1ccccc1)NCC12CC3CC(CC(C3)C1)C2`, the IC50 (read-out: IC50) amounted to 4.24 µM.
